# Test results taken from patent US10004754B2, “ANP fragment adjuvant therapy to standard of care (SOC) diuretic treatment” (MADELEINE PHARMACEUTICALS PTY LTD, priority 2014, dated 2018).
# Where two headings read alike, the source gives them in different places. Where no end group is shown, it is not given here.
# Columns and labels:
# Format in all cases: in vivo, human
# stable CHF patients [1] = conditions: for Diastolic Blood Pressure: baseline 65 ± 10; for Diastolic Blood Pressure / Systolic Blood Pressure: with SOC; for Systolic Blood Pressure: baseline 119 ± 15
# Protocol: VSDL in the form of a white lyophilised powder (synthesised using standard protein synthesis method by Auspep Pty Ltd, Parkville, VIC, Australia), stored in an ultra-low freezer (−80° C.), was reconstituted in a vial with 10 ml of 0.9% saline (preservative free) and aseptically transferred into a 20 ml syringe (that connects to a cannula) before use.
# A first study was conducted with a cohort of eight (8) test adult patients, both male and female, with a history of stable, chronic congestive heart failure and moderate renal impairment that had been selected on the basis of the following Inclusion and Exclusion criteria:
# All patients underwent existing standard of care (SOC) treatment for the condition for which they presented. These treatments were diuretic therapy (ie administration with furosemide or spironolactone) and an antihypertensive drug(s) (eg an Angiotensin Converting Enzyme (ACE) inhibitor, beta blocker agent and calcium channel blocker agent). […]
# stable CHF patients [2] = assay: Cardiovascular haemodynamics (Swan-Ganz catheterisation) with sc VSDL infusion, Example 2; conditions: for Cardiac Output, Mean / Cardiac Output, Median: baseline 4.7; for systemic vascular resistance: baseline=3076+929
# Protocol: (§1) A second study was conducted with a population of eighteen (18) test adult CHF patients, both male and female, in order to further evaluate the improvement in renal and cardiac function in stable CHF patients given VSDL (by sc administration) in addition to standard of care (SOC) treatment.
# (§2) Participants were selected on the basis of the Inclusion and Exclusion criteria given in Example 1. […] In addition, selected patients were required to have a plasma brain natriuretic peptide (BNP) concentration of ≥100 pg/mL and a GFR ≥25 mL/min and <70 mL/min as calculated by the Cockroft Gault calculation (ie moderate renal impairment). On the other hand, the presence of acute MI (ie as indicated by ST elevation and/or elevation of Troponin-T) or evidence of MI or other high risk acute coronary syndrome within the past 6 weeks, hypotension (ie systolic blood pressure (SBP) <90 mmHg), persistent and/or uncontrolled hypertension (SBP>180 mmHg), cardiogenic shock or any other clinical condition that would contraindicate administration of an agent with potent vasodilatory effects, excluded patients from participating in the study. Participants in this study also had standard exclusion criteria that accompany pulmonary artery (SG) catheterisation.
# (§3) The study was an open-label, sequential group, continuous sc infusion study conducted at a single centre. Two steady-state concentration levels (Css) of VSDL were targeted, approximately 10 ng/mL (n=2 lead-in, and n=10, cohort 1) and 20 ng/mL (n=6, cohort 2). The two lead-in patients were treated with similar dose regimens to confirm that the measured plasma concentrations were in agreement with the targeted Css. Two patients from cohort 1 and all 6 patients from cohort 2 underwent pulmonary artery Swan-Ganz (SG) catheterisation to enable haemodynamic monitoring.
# (§4) VSDL prepared as described in Example 1, was administered via sc 6 or 12 hour infusion into the lower abdomen at a maximum volume rate of 350 μL/hr (ie approximately 6 μL/min). The rate of infusion of VSDL for the targeted Css level of 10 ng/mL was either 900 μg/hr (0.3 mL/hr) for 12 hrs or a bimodal infusion of 900 μg/hr for 5 hrs followed by 550 μg/hr (0.18 mL/hr) for 7 hrs. The rate of infusion of VSDL for the targeted Css level of 20 ng/mL was bimodal; 1800 μg/hr (0.20 mL/hr) for 5 hrs followed by 1100 μg/hr (0.12 mL/hr) for 7 hrs (see WO 2014/138796). For the lead-in patients, the infusions were performed at 900 μg/hr for 6 hrs.
# (§5) R Studio (version 4) and GraphPad Prism (GraphPad Software, version 6) were used for all statistical analyses. Statistically significant changes from base line for all parameters were tested using with linear mixed effects model or one-way repeated measures ANOVA with Bonferroni correction. A p value of 0.05 was set for statistically significant differences. All data are reported as mean±s.d or mean (95% CI).
# stable CHF patients [3] = assay: Urine output and fractional excretion of sodium with sc VSDL infusion, Example 2
# Protocol: as §1, §2, §3, §4, §5
sequence,measurement,setting,value
EVVPPQVLSEPNEEAGAALSPLPEVPPWTGEVSPAQR [VSDL],Diastolic Blood Pressure,stable CHF patients [1]; 10 ng/kg column,64 ± 7 mmHg
same,Systolic Blood Pressure,stable CHF patients [1]; 10 ng/kg column,122 ± 10 mmHg
same,Diastolic Blood Pressure,stable CHF patients [1]; 20 ng/kg column,65 ± 6 mmHg
same,Systolic Blood Pressure,stable CHF patients [1]; 20 ng/kg column,115 ± 19 mmHg
same,symptomatic hypotension,"stable CHF patients [1]; human, in vivo, sc",none of these resulted in symptomatic hypotension
same,change in systolic and diastolic blood pressures,"stable CHF patients [1]; stable CHF patients, sc bolus VSDL with SOC, p < 0.05",significant drop
same,"Cardiac Output, Mean",stable CHF patients [2]; >0.5-6 hrs,4.6 L/min
same,"Cardiac Output, Median",stable CHF patients [2]; >0.5-6 hrs,4.2 L/min
same,"Cardiac Output, Mean",stable CHF patients [2]; >6-12 hrs,4.9 L/min
same,"Cardiac Output, Median",stable CHF patients [2]; >6-12 hrs,4.3 L/min
same,"Cardiac Output, Mean",stable CHF patients [2]; >12-24 hrs,5.0 L/min
same,"Cardiac Output, Median",stable CHF patients [2]; >12-24 hrs,4.4 L/min
same,pulmonary capillary wedge pressure,"stable CHF patients [2]; adjuvant VSDL treatment, limited patient numbers to date",either decreased or unchanged
same,pulmonary vascular resistance,stable CHF patients [2]; infusion of VSDL,no changes
same,increase in cardiac output on average above baseline (regression of cardiac output on time),"stable CHF patients [2]; t=3.16, p≤0.05, FIG. 1",0.000472 L/min
same,systemic vascular resistance,stable CHF patients [2]; ≥0.5-6 hs,2658+676 dyn·s/cm^5
same,systemic vascular resistance,stable CHF patients [2]; ≥6-12 hs,2529+509 dyn·s/cm^5
same,systemic vascular resistance,stable CHF patients [2]; ≥12-24 hs,2485+645 dyn·s/cm^5
same,mean urine output,stable CHF patients [3]; 10 ng/ml cohort,2898 ± 334 mL
same,FENa (fractional excretion of sodium),"stable CHF patients [3]; 10 ng/ml cohort, during infusion, baseline 2.2±0.3%, not statistically significant",3.3±0.8%
same,FENa (fractional excretion of sodium),"stable CHF patients [3]; 10 ng/ml cohort, post infusion, baseline 2.2±0.3%",2.3±0.3%
same,mean urine output,stable CHF patients [3]; 20 ng/ml cohort,3028 ± 301 mL
same,FENa (fractional excretion of sodium),"stable CHF patients [3]; 20 ng/ml cohort, during infusion, baseline 1.6±0.3%",2.4±0.8%
same,FENa (fractional excretion of sodium),"stable CHF patients [3]; 20 ng/ml cohort, post infusion, baseline 1.6±0.3%",1.6±0.4%
same,fluid output (urine volumes from baseline),stable CHF patients [3]; patients treated with VSDL plus SOC,increased
same,patients with urine volumes above 3 liters/day,"stable CHF patients [3]; pooled 10 and 20 ng/ml patients, FIG. 2",more than 50%
